The target of one series is CYP1A2 (Homo sapiens (Human), UniProt P05177). The series can be described thus: CYP inhibition in pooled human liver microsomes. The format is in vitro ADME. Here is the method:
(§1) CYP inhibition: Co-incubation of compounds with P450 enzyme-selective substrates was performed using pooled human liver microsomes (Cat. No. H0610, Xenotech), to determine their potential to cause drug-drug interactions. The assay was performed in duplicate. The formation of acetaminophen, 7′-hydoxycoumarin, hydrobupropion, N-desethylamodiaquine, 4′-hydroxydiclofenac, 4′-hydroxymephenytoin, 1′-hydroxybufuralol, 6″-hydroxychlorzoxazone were quantified as markers for CYP1A2, CYP2A6, […], CYP2C8, CYP2C9, CYP2C19, […], CYP2E1, respectively. CYP3A4 inhibition was measured using 2 substrates, measuring the formation of […] (3A4-T), and 1′-hydroxymidazolam (3A4-M). The incubation was carried out in 96 deep well plates each well containing: 179 μL of the master solution (0.2 mg/mL microsomes plus CYP substrate (see below for final substrate concentration and incubation time for the different CYP assays)) in 100 mM phosphate buffer and 1 μL of the compound working solution or vehicle. The final concentrations of the compounds in the assay was 30 μM when using a single dose or 0.1, 0.3, 1, 3, 10 and 30 μM for a dose response.
The incubation plate was placed into a water bath and pre-warmed at 37° C. for 5 minutes before the reactions were started by the addition of 20 μL of 10 mM NADPH solution and incubated at 37° C. for the time listed above. […]
A general note: Microsomes from liver hold many membrane-bound enzymes, among them those of drug oxidation.

Series [1] can be described thus: in vitro. The conditions noted are these: for hHEPs % remaining: % remaining at 120 min, 1 μM; for half-life at 1 μM: human, hepatocytes. As to the method: Human Hepatocyte metabolic stability: Human hepatocytes (X008000, BioIVT) were freshly thawed prior to the incubations with test compound. Hepatocytes were transferred to 50 mL conical tubes and centrifuged 10 min at 100 g. Thawing medium was removed and replaced by preheated (37° C.) incubation medium (William's E Medium supplemented with GlutaMAX), to yield a hepatocyte density ˜1.5×10^6 cells/mL. Cell viability was determined using AO/PI staining and hepatocytes were diluted using incubation medium to a working density of 0.5×10^6 viable cells/mL. 198 μL of hepatocytes were added into each well of a 96-well plate and placed in the incubator to allow the hepatocytes to warm for 10 minutes. 2 μL test compound or positive control was placed into respective wells of the 96-well plate (final concentration test compound 1 μM) to start the reaction. The plate was returned to the incubator and 25 μL aliquots of the well contents were removed at time points of 0, 15, 30, 60, 90 and 120 minutes. The aliquots were mixed with 6 volumes (150 μL) of acetonitrile containing internal standards (100 nM alprazolam, 200 nM caffeine, and 100 nM tolbutamide) to terminate the reaction. The plate was centrifuged for 20 minutes at 3,200 g. Aliquots of 150 μL of the supernatants were used for LC/MS/MS analysis. All incubations were performed in duplicate.
(§2) Peak areas were determined from extracted ion chromatograms to determine the in vitro half-life (t½) of parent compound by regression analysis of the percent parent disappearance vs. time curve. The in vitro half-life (in vitro t½) was determined from the slope value (in vitro t½=−0.693/k). All calculations were carried out using Microsoft Excel.

Another series concerns the target CYP2B6 (Homo sapiens (Human), UniProt P20813). The experiment in a line: biochemical. In kind it is in vitro ADME. Here is the method:
as §1
(§3) The incubation plate was placed into a water bath and pre-warmed at 37° C. for 5 minutes before the reactions were started by the addition of 20 μL of 10 mM NADPH solution and incubated at 37° C. for the time listed above. The reaction was stopped by addition of 1.5 volumes (300 μL) of cold ACN containing 3% formic acid and 200 nM tolbutamide, 200 nM aprozolam and 200 nM labalol. The plate was centrifuged at 3,220 g for 50 minutes and then 200 μL of the supernatant was transferred to the analysis plate for LC/MS/MS analysis. The respective metabolite formation from each probe substrate was compared with that observed for the solvent control incubations.

The target in a further series is CYP2C19 (Homo sapiens (Human), UniProt P33261). The experiment in a line: biochemical. In kind it is in vitro ADME. As to the method:
as §1, §3

The next series has as its target CYP2D6 (Homo sapiens (Human), UniProt P10635). The experiment in a line: biochemical. The format is in vitro ADME. Here is the method: as §1, §3
In the next series the target is CYP2C9 (Homo sapiens (Human), UniProt P11712). The series can be described thus: biochemical. The format is in vitro ADME. As to the method:
as §1, §3

The target in the next series is CYP2A6 (Homo sapiens (Human), UniProt P11509). The experiment in a line: biochemical. In kind it is in vitro ADME. As to the method: as §1, §3
The target in a further series is CYP3A4 (Homo sapiens (Human), UniProt P08684). The series can be described thus: biochemical. In kind it is in vitro ADME. Here is the method:
as §1, §3

The target in another series is CYP2C8 (Homo sapiens (Human), UniProt P10632). The experiment in a line: biochemical. In kind it is in vitro ADME. As to the method: as §1, §3
The next series deals with CYP2E1 (Homo sapiens (Human), UniProt P05181). The series can be described thus: biochemical. The format is in vitro ADME. As to the method:
as §1, §3

The nature of series [2]: in vitro. The conditions noted are these: for HLM % remaining: % remaining at 60 min, 1 μM; for half-life at 1 μM: both, human. As to the method:
Human Liver Microsomal metabolic stability: The microsomal metabolic stability assay utilized pooled human liver microsomes (mixed gender, BD Gentest), with supplemented cofactors NADPH and UDPGA (Solarbio S&T Co., LTD). Two separate experiments were performed as follows: • a) With cofactors (NADPH & UDPGA): 25 μL of 10 mM NADPH and 25 μL of 20 mM UDPGA were added to 197.5 μL of reaction solution (phosphate buffer (final concentration in assay 100 mM), MgCl2 (final concentration in assay (5 mM)), alamethacin (final concentration in assay 0.025 mg/mL) and microsomes (final concentration in assay 0.5 mg/mL). • b) Without cofactors (NADPH & UDPGA): 50 μL of H2O was added to 197.5 μL of reaction solution.
The mixture was pre-warmed at 37° C. for 10 minutes. The reaction was started with the addition of 2.5 μL of 100 μM control compound or test compound solutions. Diclofenac was used as positive control in this study. The final concentration of control compound and test compounds was 1 μM. Aliquots of 25 μL were taken from the reaction solution at 0.5, 5, 15, 30 and 60 minutes. The reaction was stopped by the addition of 5 volumes of cold acetonitrile containing internal standards. Samples were centrifuged at 3,220 g for 40 minutes. An aliquot of 100 μL of the supernatant was mixed with 100 μL of ultra-pure H2O and then used for LC-MS/MS analysis. Peak areas were determined from extracted ion chromatograms. Percent parent remaining was calculated from the area ratio of test compound. The slope value was determined by linear regression of the natural logarithm of percent parent remaining versus incubation time curve.
as §2

The subject of another series is MOLM-13 cells. The experiment in a line: MOLM-13 cell viability (Assay B), Cell Titer-Glo. The format is cell-based. The conditions noted are these: Homo sapiens, MOLM-13, 72 h, read-out: IC50 MOLM13 inhibition activity. The method, boiled down: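 Cells at 1,000 per well in RPMI/10% FBS were exposed to compound (10E-5 to 6E-12 M), with or without 100 μM uridine, for 72 h. Viability was read by CellTiter-Glo luminescence. Duplicates were run, and potency was taken from two independent experiments.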
(ATP-based viability assays read luminescence as a measure of living cells.)

A further series addresses recombinant human DHODH (Homo sapiens (Human), UniProt Q02127). The series can be described thus: DHODH enzyme assay (Assay A), DCIP absorbance. The conditions noted are these: bins ≥10 nM-<100 nM and <10 nM; read-out: IC50 DHODH inhibition activity. The format is biochemical.

CYP3A4, sequence (P08684 whole entry): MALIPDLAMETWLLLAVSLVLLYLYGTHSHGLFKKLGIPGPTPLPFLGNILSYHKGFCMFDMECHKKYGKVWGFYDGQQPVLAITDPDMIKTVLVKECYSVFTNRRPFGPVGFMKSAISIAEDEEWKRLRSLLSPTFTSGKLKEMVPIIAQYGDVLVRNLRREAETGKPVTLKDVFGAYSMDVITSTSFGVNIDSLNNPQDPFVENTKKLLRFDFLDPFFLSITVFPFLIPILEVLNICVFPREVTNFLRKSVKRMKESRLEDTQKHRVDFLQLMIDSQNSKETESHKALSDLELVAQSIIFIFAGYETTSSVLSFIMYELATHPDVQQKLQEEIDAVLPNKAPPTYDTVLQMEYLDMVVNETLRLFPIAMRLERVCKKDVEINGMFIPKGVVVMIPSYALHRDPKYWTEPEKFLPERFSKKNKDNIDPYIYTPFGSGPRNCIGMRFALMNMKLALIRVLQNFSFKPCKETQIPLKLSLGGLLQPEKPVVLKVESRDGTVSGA
recombinant human DHODH, sequence (Q02127 whole entry): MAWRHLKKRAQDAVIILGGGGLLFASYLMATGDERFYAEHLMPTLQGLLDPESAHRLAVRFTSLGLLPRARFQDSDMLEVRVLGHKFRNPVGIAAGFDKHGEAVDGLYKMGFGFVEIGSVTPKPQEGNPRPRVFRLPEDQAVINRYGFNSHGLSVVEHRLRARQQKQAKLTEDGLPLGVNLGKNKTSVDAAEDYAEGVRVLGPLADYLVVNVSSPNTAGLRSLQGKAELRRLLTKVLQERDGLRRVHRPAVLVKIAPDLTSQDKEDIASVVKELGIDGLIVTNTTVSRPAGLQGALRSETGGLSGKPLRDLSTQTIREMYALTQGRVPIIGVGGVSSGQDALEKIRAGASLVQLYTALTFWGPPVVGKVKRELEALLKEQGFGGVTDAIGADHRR
CYP2B6, sequence (P20813 whole entry): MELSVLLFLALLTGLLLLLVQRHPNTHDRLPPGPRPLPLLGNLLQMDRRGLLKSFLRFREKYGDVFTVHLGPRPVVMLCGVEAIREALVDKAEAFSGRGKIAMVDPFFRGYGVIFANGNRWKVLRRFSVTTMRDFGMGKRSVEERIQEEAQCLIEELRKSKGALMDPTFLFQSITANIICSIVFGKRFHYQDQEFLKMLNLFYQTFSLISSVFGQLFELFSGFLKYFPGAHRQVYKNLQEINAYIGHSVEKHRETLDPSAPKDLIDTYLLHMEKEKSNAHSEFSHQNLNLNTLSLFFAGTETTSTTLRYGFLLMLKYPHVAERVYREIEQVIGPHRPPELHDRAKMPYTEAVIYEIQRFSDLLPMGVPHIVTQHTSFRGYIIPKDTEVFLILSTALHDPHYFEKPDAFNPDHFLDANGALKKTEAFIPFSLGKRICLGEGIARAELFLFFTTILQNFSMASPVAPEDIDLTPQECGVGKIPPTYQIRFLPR
CYP1A2, sequence (P05177 whole entry): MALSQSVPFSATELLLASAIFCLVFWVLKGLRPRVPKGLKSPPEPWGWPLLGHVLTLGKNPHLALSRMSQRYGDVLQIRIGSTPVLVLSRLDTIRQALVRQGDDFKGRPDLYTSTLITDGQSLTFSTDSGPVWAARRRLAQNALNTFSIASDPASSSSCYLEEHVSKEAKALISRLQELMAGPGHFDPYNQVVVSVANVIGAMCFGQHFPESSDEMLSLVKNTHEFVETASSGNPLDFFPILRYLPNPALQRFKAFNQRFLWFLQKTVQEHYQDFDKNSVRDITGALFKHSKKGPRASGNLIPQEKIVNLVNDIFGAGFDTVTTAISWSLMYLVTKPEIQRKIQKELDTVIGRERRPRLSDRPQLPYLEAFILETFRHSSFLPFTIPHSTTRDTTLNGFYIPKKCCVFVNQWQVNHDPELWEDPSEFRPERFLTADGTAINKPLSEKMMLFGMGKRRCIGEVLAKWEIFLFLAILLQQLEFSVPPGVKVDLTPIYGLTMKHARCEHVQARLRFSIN
CYP2A6, sequence (P11509 whole entry): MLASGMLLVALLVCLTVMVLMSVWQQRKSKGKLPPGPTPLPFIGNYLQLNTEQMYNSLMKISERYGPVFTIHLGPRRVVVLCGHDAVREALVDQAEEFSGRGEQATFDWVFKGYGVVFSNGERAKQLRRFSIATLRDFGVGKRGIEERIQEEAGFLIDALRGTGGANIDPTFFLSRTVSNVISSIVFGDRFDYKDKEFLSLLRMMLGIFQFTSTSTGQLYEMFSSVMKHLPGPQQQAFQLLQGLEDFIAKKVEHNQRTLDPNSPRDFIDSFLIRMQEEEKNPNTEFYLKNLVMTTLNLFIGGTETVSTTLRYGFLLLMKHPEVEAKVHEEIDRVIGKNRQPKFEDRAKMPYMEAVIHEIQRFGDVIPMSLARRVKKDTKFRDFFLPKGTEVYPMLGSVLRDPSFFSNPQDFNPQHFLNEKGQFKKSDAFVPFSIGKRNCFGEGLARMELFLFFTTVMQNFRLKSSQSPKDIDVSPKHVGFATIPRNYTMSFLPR
CYP2C8, sequence (P10632 whole entry): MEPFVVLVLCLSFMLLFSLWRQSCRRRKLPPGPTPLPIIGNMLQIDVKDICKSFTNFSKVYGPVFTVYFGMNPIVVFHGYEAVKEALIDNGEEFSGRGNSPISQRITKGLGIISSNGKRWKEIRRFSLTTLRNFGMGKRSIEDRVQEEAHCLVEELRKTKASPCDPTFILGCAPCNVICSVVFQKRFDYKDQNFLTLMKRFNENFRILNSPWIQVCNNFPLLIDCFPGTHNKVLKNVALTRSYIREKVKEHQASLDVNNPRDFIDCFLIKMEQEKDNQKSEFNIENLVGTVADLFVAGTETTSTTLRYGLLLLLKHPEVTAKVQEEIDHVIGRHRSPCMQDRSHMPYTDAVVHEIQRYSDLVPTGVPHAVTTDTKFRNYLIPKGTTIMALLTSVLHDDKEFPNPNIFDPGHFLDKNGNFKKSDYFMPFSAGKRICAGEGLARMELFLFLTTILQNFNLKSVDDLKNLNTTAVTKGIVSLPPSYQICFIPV
CYP2E1, sequence (P05181 whole entry): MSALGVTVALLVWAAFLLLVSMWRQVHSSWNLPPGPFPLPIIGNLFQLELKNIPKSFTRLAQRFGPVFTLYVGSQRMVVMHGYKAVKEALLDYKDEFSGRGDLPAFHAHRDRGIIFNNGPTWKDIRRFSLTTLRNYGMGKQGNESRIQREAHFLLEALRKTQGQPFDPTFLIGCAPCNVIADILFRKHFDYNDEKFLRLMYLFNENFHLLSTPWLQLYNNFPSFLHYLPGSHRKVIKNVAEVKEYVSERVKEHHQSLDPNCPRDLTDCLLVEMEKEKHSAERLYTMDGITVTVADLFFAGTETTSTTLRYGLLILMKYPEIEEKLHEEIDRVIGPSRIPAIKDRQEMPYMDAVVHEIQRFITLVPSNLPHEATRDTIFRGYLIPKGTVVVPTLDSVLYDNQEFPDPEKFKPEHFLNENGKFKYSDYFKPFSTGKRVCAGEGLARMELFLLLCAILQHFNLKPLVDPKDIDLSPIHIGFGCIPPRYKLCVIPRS
CYP2C9, sequence (P11712 whole entry): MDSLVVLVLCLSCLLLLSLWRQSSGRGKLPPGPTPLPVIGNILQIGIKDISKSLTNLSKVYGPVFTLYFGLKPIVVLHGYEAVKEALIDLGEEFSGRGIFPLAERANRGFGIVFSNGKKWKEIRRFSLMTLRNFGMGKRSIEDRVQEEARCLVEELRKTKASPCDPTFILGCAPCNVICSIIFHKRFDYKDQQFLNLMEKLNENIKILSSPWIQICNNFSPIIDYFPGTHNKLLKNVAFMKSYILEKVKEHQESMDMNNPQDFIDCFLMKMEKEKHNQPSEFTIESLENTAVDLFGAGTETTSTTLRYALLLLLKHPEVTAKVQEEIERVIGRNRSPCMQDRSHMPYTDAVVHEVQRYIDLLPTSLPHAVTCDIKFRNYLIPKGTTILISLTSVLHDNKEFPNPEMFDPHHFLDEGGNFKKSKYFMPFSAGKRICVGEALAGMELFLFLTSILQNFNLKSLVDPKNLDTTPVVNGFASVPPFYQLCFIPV
CYP2D6, sequence (P10635 whole entry): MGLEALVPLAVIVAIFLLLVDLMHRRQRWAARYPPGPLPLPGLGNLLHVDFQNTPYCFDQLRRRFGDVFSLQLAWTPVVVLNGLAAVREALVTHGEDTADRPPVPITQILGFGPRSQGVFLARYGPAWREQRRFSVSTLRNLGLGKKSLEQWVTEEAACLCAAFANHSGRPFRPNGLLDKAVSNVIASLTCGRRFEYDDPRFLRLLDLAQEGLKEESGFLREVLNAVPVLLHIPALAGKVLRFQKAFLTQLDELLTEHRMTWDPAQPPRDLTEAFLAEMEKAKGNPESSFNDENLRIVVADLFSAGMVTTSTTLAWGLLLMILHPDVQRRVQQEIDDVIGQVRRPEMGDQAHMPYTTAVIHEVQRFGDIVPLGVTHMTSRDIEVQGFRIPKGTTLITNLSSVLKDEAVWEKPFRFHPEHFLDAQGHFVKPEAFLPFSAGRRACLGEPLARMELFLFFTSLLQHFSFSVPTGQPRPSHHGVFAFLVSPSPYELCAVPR
CYP2C19, sequence (P33261 whole entry): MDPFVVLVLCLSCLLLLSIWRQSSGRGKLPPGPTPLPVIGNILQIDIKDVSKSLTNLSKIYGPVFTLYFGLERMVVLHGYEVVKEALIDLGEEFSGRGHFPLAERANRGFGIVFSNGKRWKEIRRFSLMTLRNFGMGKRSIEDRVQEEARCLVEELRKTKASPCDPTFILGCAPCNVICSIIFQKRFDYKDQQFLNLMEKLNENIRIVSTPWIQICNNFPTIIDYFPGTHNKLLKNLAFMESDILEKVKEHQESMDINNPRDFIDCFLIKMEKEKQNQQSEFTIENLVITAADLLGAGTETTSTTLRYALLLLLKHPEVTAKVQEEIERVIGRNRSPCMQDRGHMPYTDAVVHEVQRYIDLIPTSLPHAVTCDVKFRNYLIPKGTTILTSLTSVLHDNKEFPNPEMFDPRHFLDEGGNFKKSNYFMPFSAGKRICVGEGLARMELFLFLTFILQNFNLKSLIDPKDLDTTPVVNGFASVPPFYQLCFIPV

One may read the IC50 as the concentration that gives 50% inhibition. In general, half-life refers to the time in which the quantity being followed falls by half. A high value points to slow loss. As for `COc1ccc(F)c(-n2ncc3c2CCC[C@H]3NC(=O)c2ncn3c2CCCC3)c1Cl` [Compound C, reference compound], the IC50 is more than 30 µM on CYP1A2; more than 30 µM on CYP2B6; 18 µM at CYP2C19; more than 30 µM against CYP2D6; 9.2 µM on CYP2C9; more than 30 µM at CYP2A6. Moreover, the IC50 against CYP3A4 (IC50 CYP3A4-M, substrate Midozolam) is 16 µM; against CYP3A4 (IC50 CYP3A4-T, substrate Testosterone) it was more than 30 µM; at CYP2C8 it was more than 30 µM; against CYP2E1, more than 30 µM. For the same molecule, the hHEPs % remaining in the series “in vitro [1]” is recorded as 100%. Further, the figures for the half-life at 1 μM in the series “in vitro [1]” and in “in vitro [2]” (pooled liver microsomes) were more than 600 min and 102 min, respectively. Moreover, the HLM % remaining in the series “in vitro [2]” was 69%.
For the molecule `CC(C)OC(=O)c1cccc(-n2ncc3c2COC[C@H]3NC(=O)c2ncn3c2CCCC3)c1Cl` [Ex-69, Isopropyl (S)-2-chloro-3-(4-(5,6,7,8-tetrahydroimidazo[1,5-a]pyridine-1-carboxamido)-4,7-dihydropyrano[3,4-c]pyrazol-1(5H)-yl)benzoate], in “in vitro [1]”, the hHEPs % remaining result was “BLOD@”. For the same molecule, the half-life at 1 μM turned out to be 4.6 min in the series “in vitro [1]” and 7.3 min in the series “in vitro [2]” (microsomes). Moreover, the HLM % remaining in the series “in vitro [2]” was 0.14%. Besides, the IC50 in the series on MOLM-13 cells and at recombinant human DHODH was less than 0.01 µM each time.

The values are drawn from US20250388602A1 (Genase Therapeutics B.V., priority 2022, published 2025).
